Columns and labels:
PDE4D3 = PDE4D3 (Homo sapiens, UniProt Q08499); test: PDE4D3 enzyme inhibition (IMAP); type: biochemical; conditions: for PDE4D3 % inib at 10 μM: in duplicate; for IC50: five concentrations 10^−8-10^−4 M
Procedure: (§1) Compound's evaluation on PDE4D3, PDE4A4, PDE4B2 and PDE4C2 enzyme assays were performed by Scottish Biomedical (Glasgow, Scotland, UK) using recombinant human PDE enzymes expressed in a baculoviral system. The preliminary screening assays were performed by the IMAP technology (Molecular Devices), which is based on the high affinity binding of phosphate by immobilized metal coordination complexes on nanoparticles. The binding reagent complexes with phosphate groups on nucleotide monophosphate generated from cyclic nucleotides (cAMP) through phosphodiesterases. With fluorescence polarization detection, binding causes a change in the rate of the molecular motion of the phosphate bearing molecule and results in an increase in the fluorescence polarization value observed for the fluorescent label attached to the substrate. […] All compounds were solved in DMSO at 10^−2 M concentration and then diluted with water to the final suitable concentrations. All synthesized compounds were tested preliminary on PDE4D3 at 10^−5 M concentration, in duplicate. Results are expressed as a percent inhibition of control activity (see table 1).
IC50 values are reported at μM concentration in table 1. […] The results are reported (as percent of inhibition at 10 μM concentration) in Table 1.

PDE4A4 = PDE4A4 (Homo sapiens, UniProt P27815); test: PDE4A4 enzyme inhibition (IMAP); type: biochemical
Chain of PDE4A4 (P27815 whole entry): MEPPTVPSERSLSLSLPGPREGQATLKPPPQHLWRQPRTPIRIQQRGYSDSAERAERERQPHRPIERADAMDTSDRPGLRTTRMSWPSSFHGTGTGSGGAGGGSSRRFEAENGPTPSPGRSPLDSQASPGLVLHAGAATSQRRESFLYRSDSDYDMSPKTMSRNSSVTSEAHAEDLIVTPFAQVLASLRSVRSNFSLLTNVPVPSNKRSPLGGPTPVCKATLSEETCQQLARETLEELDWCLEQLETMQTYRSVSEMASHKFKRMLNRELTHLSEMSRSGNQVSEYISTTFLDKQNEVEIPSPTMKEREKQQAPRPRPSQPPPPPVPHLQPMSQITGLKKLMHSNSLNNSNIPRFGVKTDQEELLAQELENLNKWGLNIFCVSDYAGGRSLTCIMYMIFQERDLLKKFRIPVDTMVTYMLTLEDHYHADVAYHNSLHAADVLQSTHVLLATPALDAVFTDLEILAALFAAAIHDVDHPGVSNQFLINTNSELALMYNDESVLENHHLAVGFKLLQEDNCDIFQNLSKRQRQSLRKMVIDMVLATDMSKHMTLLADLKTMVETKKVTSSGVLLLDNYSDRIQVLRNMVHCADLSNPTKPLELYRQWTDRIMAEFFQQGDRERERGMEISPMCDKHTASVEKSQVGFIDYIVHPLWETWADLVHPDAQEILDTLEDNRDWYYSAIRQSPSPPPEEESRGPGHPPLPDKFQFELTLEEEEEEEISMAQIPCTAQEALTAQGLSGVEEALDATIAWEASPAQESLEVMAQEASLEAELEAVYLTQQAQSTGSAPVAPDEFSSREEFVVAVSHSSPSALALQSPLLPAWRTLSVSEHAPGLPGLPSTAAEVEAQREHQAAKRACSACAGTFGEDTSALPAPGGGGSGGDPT
Procedure: as §1
(§2) The IC50 values obtained for the reference compounds are within accepted limits of historic averages obtained (0.5 log unit). IC50 values are reported at μM concentration in table 1. […] The results are reported (as percent of inhibition at 10 μM concentration) in Table 1.

PDE4C2 = biological target: T1, PDE4C2 (Homo sapiens, UniProt Q08493); test: PDE4C2 enzyme inhibition (IMAP); type: biochemical
T1 construct: purchased Scottish Biomedical (Glasgow, Scotland, UK); host or cells: baculoviral system
T1 sequence (Q08493 107-712): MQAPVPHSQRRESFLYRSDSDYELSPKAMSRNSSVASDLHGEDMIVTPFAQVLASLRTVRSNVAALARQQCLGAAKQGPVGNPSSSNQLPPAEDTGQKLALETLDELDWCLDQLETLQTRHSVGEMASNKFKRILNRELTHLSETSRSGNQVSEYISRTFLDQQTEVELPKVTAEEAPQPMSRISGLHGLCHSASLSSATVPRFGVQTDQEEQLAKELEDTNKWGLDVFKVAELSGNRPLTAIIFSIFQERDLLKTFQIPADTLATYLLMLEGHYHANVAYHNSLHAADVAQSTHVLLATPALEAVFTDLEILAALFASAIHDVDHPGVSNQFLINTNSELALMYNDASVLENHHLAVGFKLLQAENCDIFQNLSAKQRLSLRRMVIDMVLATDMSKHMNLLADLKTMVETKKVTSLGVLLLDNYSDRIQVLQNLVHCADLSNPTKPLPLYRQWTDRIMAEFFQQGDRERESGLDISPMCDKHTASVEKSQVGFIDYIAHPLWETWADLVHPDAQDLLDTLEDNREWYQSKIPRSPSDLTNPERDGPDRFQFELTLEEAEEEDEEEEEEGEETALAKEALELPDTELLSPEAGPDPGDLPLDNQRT
Procedure: as §1, §2

PDE4B2 = biological target: T2, PDE4B2 (Homo sapiens, UniProt Q07343); test: PDE4B2 enzyme inhibition (IMAP); type: biochemical
T2 construct: purchased Scottish Biomedical (Glasgow, Scotland, UK); host or cells: baculoviral system
T2 sequence (Q07343 1-564 isoform Q07343-2): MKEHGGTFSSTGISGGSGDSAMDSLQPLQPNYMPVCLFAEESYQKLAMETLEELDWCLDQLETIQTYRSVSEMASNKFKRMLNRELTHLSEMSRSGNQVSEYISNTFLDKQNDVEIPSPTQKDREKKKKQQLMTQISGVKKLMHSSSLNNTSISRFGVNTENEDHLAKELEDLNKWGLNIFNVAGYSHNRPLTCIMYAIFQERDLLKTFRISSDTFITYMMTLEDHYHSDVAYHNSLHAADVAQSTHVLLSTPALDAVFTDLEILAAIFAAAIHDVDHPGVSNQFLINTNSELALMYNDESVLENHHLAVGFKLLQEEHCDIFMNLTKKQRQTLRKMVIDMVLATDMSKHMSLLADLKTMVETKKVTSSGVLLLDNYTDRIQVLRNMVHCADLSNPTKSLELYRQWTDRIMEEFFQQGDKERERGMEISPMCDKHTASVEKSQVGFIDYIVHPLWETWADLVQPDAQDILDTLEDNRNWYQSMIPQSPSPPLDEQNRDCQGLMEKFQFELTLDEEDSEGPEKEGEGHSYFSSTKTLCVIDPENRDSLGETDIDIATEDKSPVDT
Procedure: as §1, §2

PDE4D1 = PDE4D1 (Homo sapiens, UniProt Q08499); test: PDE4D1 enzyme inhibition (IMAP); type: biochemical
Chain of PDE4D1 (Q08499 1-584 isoform Q08499-4): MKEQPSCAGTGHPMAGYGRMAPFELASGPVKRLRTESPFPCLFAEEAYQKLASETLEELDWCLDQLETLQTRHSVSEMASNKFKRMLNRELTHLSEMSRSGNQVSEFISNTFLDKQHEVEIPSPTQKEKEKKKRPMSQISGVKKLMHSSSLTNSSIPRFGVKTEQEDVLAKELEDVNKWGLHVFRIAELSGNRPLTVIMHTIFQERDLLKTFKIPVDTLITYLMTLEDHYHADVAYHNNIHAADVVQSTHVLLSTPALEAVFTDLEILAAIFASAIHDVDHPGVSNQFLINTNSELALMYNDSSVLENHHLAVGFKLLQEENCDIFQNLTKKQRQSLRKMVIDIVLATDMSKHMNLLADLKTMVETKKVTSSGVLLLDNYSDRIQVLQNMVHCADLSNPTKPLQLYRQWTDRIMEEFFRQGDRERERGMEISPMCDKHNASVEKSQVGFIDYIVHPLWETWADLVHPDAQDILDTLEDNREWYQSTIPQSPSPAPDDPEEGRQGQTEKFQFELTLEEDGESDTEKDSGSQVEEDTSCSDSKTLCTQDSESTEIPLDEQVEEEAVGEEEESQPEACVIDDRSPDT

PDE4D2 = PDE4D2 (Homo sapiens, UniProt Q08499); test: PDE4D2 enzyme inhibition (IMAP); type: biochemical
Chain of PDE4D2 (Q08499 303-809 limits assumed): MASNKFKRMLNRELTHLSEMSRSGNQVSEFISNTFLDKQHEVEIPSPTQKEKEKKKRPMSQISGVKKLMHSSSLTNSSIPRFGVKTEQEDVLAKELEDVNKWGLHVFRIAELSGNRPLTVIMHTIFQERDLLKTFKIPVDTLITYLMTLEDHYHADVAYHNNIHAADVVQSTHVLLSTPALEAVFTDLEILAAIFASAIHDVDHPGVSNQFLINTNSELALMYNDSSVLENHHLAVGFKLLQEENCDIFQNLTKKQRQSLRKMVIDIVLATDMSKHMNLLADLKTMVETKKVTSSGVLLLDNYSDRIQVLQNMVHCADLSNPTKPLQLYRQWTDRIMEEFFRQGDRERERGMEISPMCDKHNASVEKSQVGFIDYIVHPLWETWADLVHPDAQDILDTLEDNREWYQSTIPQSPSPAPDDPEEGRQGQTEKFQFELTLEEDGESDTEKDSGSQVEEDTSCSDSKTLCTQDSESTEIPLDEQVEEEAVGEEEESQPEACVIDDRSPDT

Chain of PDE4D3 (Q08499 1-673 isoform Q08499-2): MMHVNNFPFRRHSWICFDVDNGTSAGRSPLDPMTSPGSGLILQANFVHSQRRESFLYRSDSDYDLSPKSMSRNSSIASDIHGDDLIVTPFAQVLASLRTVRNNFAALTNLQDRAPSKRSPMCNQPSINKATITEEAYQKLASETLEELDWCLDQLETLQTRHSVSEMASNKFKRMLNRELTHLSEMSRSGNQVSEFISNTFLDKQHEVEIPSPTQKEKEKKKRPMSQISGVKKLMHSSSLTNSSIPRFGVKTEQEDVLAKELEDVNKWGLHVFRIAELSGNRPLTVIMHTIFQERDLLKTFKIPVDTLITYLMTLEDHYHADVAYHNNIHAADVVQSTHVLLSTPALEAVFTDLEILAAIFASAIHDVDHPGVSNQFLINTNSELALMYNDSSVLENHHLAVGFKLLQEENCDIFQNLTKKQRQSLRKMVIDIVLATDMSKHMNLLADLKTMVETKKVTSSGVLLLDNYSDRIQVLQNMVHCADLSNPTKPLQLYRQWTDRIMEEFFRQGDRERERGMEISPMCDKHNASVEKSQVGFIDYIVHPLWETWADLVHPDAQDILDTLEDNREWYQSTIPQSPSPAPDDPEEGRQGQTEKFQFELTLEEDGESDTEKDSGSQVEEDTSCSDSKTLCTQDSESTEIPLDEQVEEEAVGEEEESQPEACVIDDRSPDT

COc1ccc(C2=NOC(CC(=O)N3CC(C)OC(C)C3)C2)cc1OC1CCCC1 (centres unmarked) [XIVb, 4-({3-[3-(Cyclopentiloxy)-4-methoxyphenyl]-4,5-dihydroisoxazol-5-yl}acetil) 2,6-dimethylmorpholine]
PDE4D3 % inib at 10 μM (PDE4D3): 51% | IC50 (PDE4D3): 5580 nM | PDE4A4 % inib at 10 μM (PDE4A4): 45% | PDE4C2 % inib at 10 μM (PDE4C2): 23% | PDE4B2 % inib at 10 μM (PDE4B2): 27% | melting point: 104 to 105 °C

COc1ccc(C2=NOC(CC(=O)N3CCCC3)C2)cc1OC1CCCC1 (centres unmarked) [XIVd, 3-[3-(Cyclopentyloxy)-4-methoxyphenyl]-5-(2-oxo-2-pyrrolidin-1-ylethyl)-4,5-dihydroisoxazole]
PDE4D3 % inib at 10 μM (PDE4D3): 57% | IC50 (PDE4D3): 1220 nM | PDE4A4 % inib at 10 μM (PDE4A4): 66% | PDE4C2 % inib at 10 μM (PDE4C2): 47% | PDE4B2 % inib at 10 μM (PDE4B2): 59%

COc1ccc(C2=NOC(CC(=O)N(CCO)CCO)C2)cc1OC1CCCC1 (centres unmarked) [XIVg, 2-{3-[3-(Cyclopentyloxy)-4-methoxyphenyl]-4,5-dihydroisoxazol-5-yl}-N,N-bis(2-hydroxyethyl)acetamide]
PDE4D3 % inib at 10 μM (PDE4D3): 65% | IC50 (PDE4D3): 1110 nM | PDE4A4 % inib at 10 μM (PDE4A4): 69% | PDE4C2 % inib at 10 μM (PDE4C2): 40% | PDE4B2 % inib at 10 μM (PDE4B2): 68% | melting point: 136 to 138 °C

COc1ccc(-c2ccn(CC(O)CN3CC(C)OC(C)C3)n2)cc1OC1CCCC1 (centres unmarked) [XVIIIb, 1-{3-[3-(Cyclopentyloxy)-4-methoxyphenyl]-1H-pyrazol-1-yl}-3-(2,6-dimethylmorpholin-4-yl)propan-2-ol dihydrocloride]
PDE4D1 % inib at 10 μM (PDE4D1): 77% | PDE4D3 % inib at 10 μM (PDE4D3): 78% | IC50 (PDE4D3): 6000 nM | IC50 (PDE4A4): 120 nM | PDE4A4 % inib at 10 μM (PDE4A4): 52% | PDE4D2 % inib at 10 μM (PDE4D2): 75% | PDE4C2 % inib at 10 μM (PDE4C2): 45% | IC50 (PDE4B2): 460 nM | PDE4B2 % inib at 10 μM (PDE4B2): 53.0%

COc1ccc(-c2cc(C(=O)N3CC(C)OC(C)C3)on2)cc1OC1CCCC1 (centres unmarked) [XVIIb, 4-({3-[3-(Cyclopentyloxy)-4-methoxyphenyl]isoxazol-5-yl}carbonyl)-2,6-dimethylmorpholine]
PDE4D3 % inib at 10 μM (PDE4D3): 35% | melting point: 152 to 153 °C

COc1ccc(-c2cc(C(O)CN3CCOCC3)on2)cc1OC1CCCC1 (centres unmarked) [XVIa, 1-{3-[3-(Cyclopentyloxy)-4-methoxyphenyl]isoxazol-5-yl}-2-morpholin-4-ylethanol]
PDE4D3 % inib at 10 μM (PDE4D3): 38% | melting point: 136 to 137 °C

COc1ccc(-c2cc(C(O)CN3CC(C)OC(C)C3)on2)cc1OC1CCCC1 (centres unmarked) [XVIb, 1-{3-[3-(Cyclopentyloxy)-4-methoxyphenyl]isoxazol-5-yl}-2-(2,6-dimethylmorpholin-4-yl)ethanol]
PDE4D1 % inib at 10 μM (PDE4D1): 2% | PDE4D3 % inib at 10 μM (PDE4D3): 15% | PDE4A4 % inib at 10 μM (PDE4A4): 0% | PDE4D2 % inib at 10 μM (PDE4D2): 3% | PDE4C2 % inib at 10 μM (PDE4C2): 7% | PDE4B2 % inib at 10 μM (PDE4B2): 5% | melting point: 92 to 94 °C

COc1ccc(-c2ccn(CC(=O)N3CCOCC3)c2)cc1OC1CCCC1 [XXIIIa, 2-{3-[3-(cyclopentyloxy)-4-methoxy-phenyl]-pyrrol-1-yl}-1-morpholin-4-yl-ethanone]
PDE4D3 % inib at 10 μM (PDE4D3): 7% | melting point: 169 to 171 °C

COc1ccc(-c2ccn(CC(=O)N3CC(C)OC(C)C3)c2)cc1OC1CCCC1 (centres unmarked) [XXIIIb, 2-{3-[3-(Cyclopentyloxy)-4-methoxy-phenyl]-pyrrol-1-yl}-1-(2,6-dimethyl-morpholin-4-yl)-ethanone]
PDE4D3 % inib at 10 μM (PDE4D3): 13% | melting point: 108 to 112 °C

COc1ccc(-c2ccn(CC(=O)N3CCC(O)CC3)c2)cc1OC1CCCC1 [XXIIIc, 2-{3-[3-(Cyclopentyloxy)-4-methoxy-phenyl]-pyrrol-1-yl}-1-(4-hydroxy-piperidin-1-yl)-ethanone]
PDE4D3 % inib at 10 μM (PDE4D3): 9% | melting point: 156 to 158 °C

COc1ccc(-c2ccn(CCC(=O)N3CCOCC3)c2)cc1OC1CCCC1 [XXIVa, 3-{3-[3-(cyclopentyloxy)-4-methoxy-phenyl]-pyrrol-1-yl}-1-morpholin-4-yl-propan-1-one]
PDE4D3 % inib at 10 μM (PDE4D3): 44% | melting point: 110 to 112 °C

COc1ccc(-c2ccn(CCC(=O)N3CCC(O)CC3)c2)cc1OC1CCCC1 [XXIVc]
PDE4D3 % inib at 10 μM (PDE4D3): 29% | melting point: 110 to 112 °C

COc1ccc(-c2ccn(CCC(=O)N3CCOCC3)n2)cc1OC1CCCC1 [XXIa, 4-(3-{3-[3-(cyclopentyloxy)-4-methoxyphenyl]-1H-pyrazol-1-yl}propanoyl)morpholine]
PDE4D3 % inib at 10 μM (PDE4D3): 42% | PDE4C2 % inib at 10 μM (PDE4C2): 10%

COc1ccc(-c2ccn(CCC(=O)N3CC(C)OC(C)C3)n2)cc1OC1CCCC1 (centres unmarked) [XXIb, 4-(3-{3-[3-(cyclopentyloxy)-4-methoxyphenyl]-1H-pyrazol-1-yl}propanoyl)2,6-dimethylmorpholine]
PDE4D3 % inib at 10 μM (PDE4D3): 53% | IC50 (PDE4D3): 1800 nM | PDE4A4 % inib at 10 μM (PDE4A4): 28% | PDE4C2 % inib at 10 μM (PDE4C2): 42% | PDE4B2 % inib at 10 μM (PDE4B2): 28%

COc1ccc(-c2ccn(CC(=O)N3CCOCC3)n2)cc1OC1CCCC1 [XXa, 4-({3-[3-(Cyclopentyloxy)-4-methoxyphenyl]-1H-pyrazol-1-yl}acetyl)morpholine]
PDE4D1 % inib at 10 μM (PDE4D1): 42% | PDE4D3 % inib at 10 μM (PDE4D3): 27% | PDE4D2 % inib at 10 μM (PDE4D2): 23% | melting point: 131 to 132 °C

COc1ccc(-c2ccn(CC(=O)N3CC(C)OC(C)C3)n2)cc1OC1CCCC1 (centres unmarked) [XXb, 4-({3-[3-(Cyclopentyloxy)-4-methoxyphenyl]-1H-pyrazol-1-yl}acetyl)2,6-dimethylmorpholine]
PDE4D1 % inib at 10 μM (PDE4D1): 18% | PDE4D3 % inib at 10 μM (PDE4D3): 23% | PDE4D2 % inib at 10 μM (PDE4D2): 13% | melting point: 99 to 100 °C
